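Briefly, cells in 96-well plates were exposed to five compound concentrations for 48 h, and endpoints were estimated by linear interpolation. Abbreviation: GI50, concentration required for 50% inhibition of growth.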 Calls of active or inactive are those of the source. No stated cut-off is given here; in the data, active = GI50 up to about 1.1 µM and inactive = higher.
Key:
Assay in all cases: NCI anticancer screen, dose series, 48 h
NCI/ADR-RES = test system: NCI/ADR-RES
SF-268 = test system: SF-268
MDA-N = test system: MDA-N
NCI-H460 = test system: NCI-H460
IGROV-1 = test system: IGROV-1
HCT-116 = test system: HCT-116
OVCAR-3 = test system: OVCAR-3
OVCAR-5 = test system: OVCAR-5
A549 = test system: A549
SK-MEL-5 = test system: SK-MEL-5
UACC-62 = test system: UACC-62
M14 = test system: M14
786-0 = test system: 786-0
ACHN = test system: ACHN
HT-29 = test system: HT-29
LOX IMVI = test system: LOX IMVI
SR = test system: SR
SF-539 = test system: SF-539
SNB-75 = test system: SNB-75
HCC 2998 = test system: HCC 2998

Measured: GI50

O=C1NC(=O)C(C(c2ccc([N+](=O)[O-])cc2)C2C(=O)NC(=O)NC2=O)C(=O)N1
inactive: NCI/ADR-RES > 100 µM | SF-268 22.5 µM | MDA-N > 100 µM | NCI-H460 > 100 µM | IGROV-1 > 100 µM | HCT-116 > 100 µM | OVCAR-3 > 100 µM | OVCAR-5 > 100 µM | A549 > 100 µM | SK-MEL-5 > 100 µM | UACC-62 > 100 µM | M14 > 100 µM | 786-0 > 100 µM | ACHN > 100 µM | HT-29 > 100 µM | LOX IMVI > 100 µM

Nc1ccc(S(=O)(=O)c2ccc(/N=[N+](\[O-])c3ccc(S(=O)(=O)c4ccc(N)cc4)cc3)cc2)cc1
inactive: SR > 61.4 µM | NCI/ADR-RES > 74.3 µM | SF-268 15 µM | SF-539 18.9 µM | NCI-H460 66.5 µM | SNB-75 8.02 µM | IGROV-1 > 92.9 µM | HCT-116 46.5 µM | HCC 2998 > 100 µM | OVCAR-3 31 µM | OVCAR-5 > 100 µM | A549 > 100 µM | SK-MEL-5 44 µM | UACC-62 > 50 µM | M14 99.3 µM | 786-0 18.5 µM | ACHN > 60.5 µM | HT-29 > 100 µM | LOX IMVI > 60.7 µM

CC(SC(=S)N(C)C)C(=O)Nc1nnc(-c2ccc(Cl)cc2)o1 (stereo not drawn)
inactive: SR 4.33 µM | NCI/ADR-RES 14.6 µM | SF-268 29 µM | SF-539 59.7 µM | NCI-H460 35.8 µM | SNB-75 41.5 µM | IGROV-1 30.2 µM | HCT-116 28.8 µM | HCC 2998 > 100 µM | OVCAR-3 19.6 µM | OVCAR-5 56.4 µM | A549 33.3 µM | SK-MEL-5 31.6 µM | UACC-62 45.8 µM | M14 37.1 µM | 786-0 20.8 µM | ACHN 36 µM | HT-29 24 µM | LOX IMVI 16.9 µM

CCSC1=N/C(=C\c2ccco2)C(NN)=N1
inactive: NCI/ADR-RES > 50 µM | SF-268 > 50 µM | SF-539 > 50 µM | MDA-N > 50 µM | NCI-H460 > 50 µM | SNB-75 > 50 µM | IGROV-1 > 50 µM | HCT-116 > 50 µM | OVCAR-3 > 50 µM | OVCAR-5 > 50 µM | A549 > 50 µM | SK-MEL-5 > 50 µM | UACC-62 > 50 µM | M14 > 50 µM | 786-0 > 50 µM | ACHN > 50 µM | HT-29 > 50 µM | LOX IMVI > 50 µM

COC(=O)C1=C2Nc3ccccc3C23CCN2C(O)C4(CC5CC67CCOC6CCN6CCC8(c9cccc(OC)c9N(C4)C58O)C67)C4OCCC4(C1)C23 (stereo not drawn)
inactive: SR 14.7 µM | SF-268 26.1 µM | SF-539 > 100 µM | MDA-N 98.2 µM | NCI-H460 76.7 µM | SNB-75 23.5 µM | IGROV-1 87.7 µM | HCT-116 34.5 µM | HCC 2998 > 100 µM | OVCAR-3 > 100 µM | OVCAR-5 > 100 µM | A549 > 100 µM | SK-MEL-5 49.5 µM | UACC-62 > 100 µM | M14 71.9 µM | 786-0 24.3 µM | ACHN 86.5 µM | HT-29 > 100 µM | LOX IMVI 95.5 µM

O=C(/C=C/c1ccc(-c2ccccc2[N+](=O)[O-])o1)NCc1ccc(C(=O)NCCc2ccccc2)cc1
inactive: SR 5.62 µM | NCI/ADR-RES > 100 µM | SF-268 > 100 µM | SF-539 > 100 µM | NCI-H460 > 100 µM | SNB-75 > 100 µM | IGROV-1 > 100 µM | HCT-116 > 100 µM | HCC 2998 > 100 µM | OVCAR-3 > 100 µM | OVCAR-5 > 100 µM | A549 > 100 µM | SK-MEL-5 > 100 µM | UACC-62 6.4 µM | M14 > 100 µM | 786-0 > 100 µM | ACHN > 100 µM | HT-29 > 100 µM | LOX IMVI > 100 µM

Cc1cccc(NC(=S)Nc2ccc([N+](=O)[O-])cc2)n1
inactive: SR > 100 µM | NCI/ADR-RES > 100 µM | SF-268 > 100 µM | SF-539 > 100 µM | NCI-H460 > 100 µM | SNB-75 > 100 µM | IGROV-1 > 100 µM | HCT-116 > 100 µM | HCC 2998 > 100 µM | SK-MEL-5 > 100 µM | UACC-62 > 100 µM | M14 > 100 µM | 786-0 > 100 µM | ACHN > 100 µM | HT-29 > 100 µM | LOX IMVI > 100 µM

O=CN1CCN(C(=O)c2ccc(Cl)c(Cl)c2)C1=S
inactive: NCI/ADR-RES 32.9 µM | SF-268 22.2 µM | SF-539 20.7 µM | NCI-H460 19.2 µM | SNB-75 17.5 µM | IGROV-1 15.1 µM | HCT-116 16.3 µM | HCC 2998 18.5 µM | OVCAR-3 15 µM | OVCAR-5 16.9 µM | A549 17.7 µM | UACC-62 16 µM | M14 16.8 µM | 786-0 4.53 µM | ACHN 17.3 µM | HT-29 19.4 µM | LOX IMVI 9.29 µM
